Target: T1, STAT3(136–705) (Homo sapiens, UniProt P40763)
T1 construct: amino acids 136 to 705 of human STAT3 and 136 to 703 of human STAT5b; 6×His-tag (N); made in house; host or cells: E. coli BL-21 Star (DE3) pLysS co-transformed with pBirAcm
Experiment: Multiplexed Alpha assay, STAT3-SH2 binding (AlphaLISA)
Conditions: multiplexed binding assay; mean and SEM, three independent experiments; read-out: IC50 STAT3-SH2 binding (STAT3)
Protocol: Both AlphaLISA and AlphaScreen are bead-based nonradioactive binding assay systems for detecting biomolecular interactions in a microplate format. The binding of the biological partners brings the donor and acceptor beads into close proximity, and AlphaLISA produces a specific signal around 615 nm and AlphaScreen emits a broad signal between 520 and 620 nm. The assays were performed in a final reaction volume of 25 µL of the assay buffer, which contained 10 mM HEPES-NaOH (pH 7.4), 50 mM NaCl, 1 mM EDTA (pH 8.0), 0.1% (w/v) NP-40, and 10 ng/µL (w/v) BSA in a 96-well microplate at 25°C. The labeled phosphotyrosyl (pTyr, pY) peptide probes were DIG-GpYLPQTV and FITC-GpYLVLDKW for STAT3 and STAT5b, respectively. In the single assay for STAT3 binding, 100 nM STAT3(136–705) protein was incubated with a test compound dissolved in DMSO for 30 min, and 1.0 nM DIG-GpYLPQTV was added and the mixture was incubated for 90 min. Streptavidin-coated donor beads (0.25 µg/well) and anti-DIG AlphaLISA acceptor beads (0.25 µg/well) were added and incubated for 90 min before the signals were measured with EnVison Xcite (PerkinElmer Life Sciences). In the single assay for STAT5b binding, 20 nM STAT5b(136–703) was incubated with a test compound for 30 min, and 1.0 nM FITC-GpYLVLDKW was added and incubated for 90 min. Streptavidin-coated donor beads (0.25 µg/well) and anti-FITC AlphaScreen acceptor beads (0.25 µg/well) were added and incubated for 90 min before the signals were measured with EnVison Xcite. In the multiplexed assay, 100 nM STAT3(136–705) and 20 nM STAT5b(136–703) were incubated with a test compound for 30 min, and 1.0 nM DIG-GpYLPQTV and 1.0 nM FITC-GpYLVLDKW were added and incubated for 90 min. Streptavidin-coated donor beads (0.50 µg/well), anti-DIG AlphaLISA (0.25 µg/well), and anti-FITC AlphaScreen acceptor beads (0.25 µg/well) were added and incubated for 90 min before the signals were measured with EnVison Xcite. AlphaLISA and AlphaScreen signals for measuring STAT3- and STAT5b-SH2 binding, respectively, can be separately measured by using a dysprosium 572 nm and a europium 615 nm narrow bandwidth filter. In inhibitory assays, these signals for the bound state and the free state were represented as 0% and 100% inhibition, respectively. The bound state was measured by incubating the labeled peptide and the protein without test compounds. The free state was measured by incubating the same mixture with an additional 10 µM non-labeled peptide contained phosphorylated tyrosine, which competitively binds to its corresponding protein. The IC50 value was calculated by Graph pad prism 4.0. The mean and the standard error (SEM) of IC50 values were determined from three independent experiments. The Z’ value was calculated using the equation Z’ = 1–(3×SD_bound +3×SD_free)/(Signal_bound – Signal_free). STAT1 and Grb2 binding assays were performed as described in previous report. In the assays for selectivity of Compound 1, 100 pM biotinylated DIG or 100 pM biotinylated FITC was incubated with 10 µM or 30 µM Compound 1 for 30 min. Streptavidin-coated donor beads (0.25 µg/well) and anti-DIG AlphaLISA acceptor beads (0.25 µg/well) or anti-FITC AlphaScreen acceptor beads (0.25 µg/well) were added and incubated for 90 min before the signals were measured with EnVison Xcite.

T1 sequence (P40763 136-705): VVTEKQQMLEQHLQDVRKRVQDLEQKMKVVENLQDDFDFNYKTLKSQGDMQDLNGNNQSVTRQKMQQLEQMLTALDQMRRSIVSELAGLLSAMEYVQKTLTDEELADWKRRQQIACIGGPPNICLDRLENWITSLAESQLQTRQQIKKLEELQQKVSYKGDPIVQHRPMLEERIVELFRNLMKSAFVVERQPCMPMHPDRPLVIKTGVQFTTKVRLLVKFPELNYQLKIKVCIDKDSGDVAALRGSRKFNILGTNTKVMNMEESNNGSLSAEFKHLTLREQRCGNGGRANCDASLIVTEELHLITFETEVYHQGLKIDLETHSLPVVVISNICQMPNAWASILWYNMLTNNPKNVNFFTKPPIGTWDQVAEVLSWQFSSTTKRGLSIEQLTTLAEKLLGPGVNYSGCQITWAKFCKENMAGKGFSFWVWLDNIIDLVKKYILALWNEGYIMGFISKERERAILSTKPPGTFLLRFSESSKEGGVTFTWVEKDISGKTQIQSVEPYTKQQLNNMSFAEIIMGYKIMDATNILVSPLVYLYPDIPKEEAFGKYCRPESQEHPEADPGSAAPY

## O=C1C=CC(=NC2=C(Cl)C(=O)c3ccccc3C2=O)C=C1 [Compound 1]
  IC50: 5 ± 0.073 µM

From publication PMC3745430, “Novel Multiplexed Assay for Identifying SH2 Domain Antagonists of STAT Family Proteins” (PLoS ONE, 2013)
